Activity calls are given as the source filed them.
Legend:
cells [1] = format: functional, cell-based
cells [2] = format: functional, cell-based; remark: listed apart in the source
[3] = inhibitors of HIV Env-driven cell fusion, dose response, cherry-pick (AID 652057); format: functional, cell-based
[4] = ZM109 Env clade C HIV-1 fusion inhibitors, dose response, HeLa effector, CEM target cells, luciferase, cherry-pick (AID 652058); format: functional, cell-based
[5] = off-target signal loss in HeLa-CEM21 co-culture – HeLa F-luc CTL cells, cherry-picked, counter-screen for HIV-1 Env fusion inhibitor project, dose response (AID 652040); format: functional, cell-based;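 note: potency for signal decrease marking cytotoxic or nonspecific inhibition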
[6] = inhibitors of firefly luciferase expression or activity, dose response, H4 neuroglioma cells, luminescence (AID 1990); format: functional, cell-based
[7] = Luminescence Cell-Based Dose Response HTS to Identify Inhibitors of 5'UTR Stem-Loop Driven Prion Protein mRNA Translation in H4 Neuroglioblastoma Cells. [Related pubchem assays: 1827 (Project Summary), 1813 (Primary HTS)]; format: functional
[8] = inhibitors of SNCA 5'UTR-driven reporter translation, confirmation, H4 neuroglioma cells, luminescence (AID 1988); format: functional, cell-based
[9] = target: T1, Ubiquitin-conjugating enzyme E2 N (Homo sapiens, UniProt P61088); format: functional;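 note: Dose-response confirmation in a TR-FRET assay detecting UBC13-driven polyubiquitin chain formation, inhibition measured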
T1 sequence (P61088 whole entry): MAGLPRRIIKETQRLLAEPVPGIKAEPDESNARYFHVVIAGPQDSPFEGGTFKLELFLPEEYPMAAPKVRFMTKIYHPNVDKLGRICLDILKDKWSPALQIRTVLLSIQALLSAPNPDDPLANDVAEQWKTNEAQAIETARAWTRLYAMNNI

[10] = Shn3 3'UTR reporter inhibitors, dose response, cell-based, Clone20 osteoblasts, firefly luciferase, cherry-picked (AID 624132); format: functional;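 note: firefly luciferase luminescence from reporter carrying the Shn3 3'UTR in osteoblasts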
[11] = HepG2 cell cytotoxicity, dose response, cytotoxicity control for Shn3 inhibitor project, CellTiter-Glo, cherry-picked (AID 624134); format: functional, cell-based
[12] = control 3'UTR Renilla luciferase suppression, dose response, counter-screen for Shn3 inhibitor project, cell-based, Clone20-Shn3RL, cherry-picked (AID 624133); format: functional
[13] = Luminescence Cell-Based Dose Confirmation HTS to Identify Activators of 5'UTR Stem-Loop Driven Alpha-Synuclein mRNA Translation in H4 Neuroglioblastoma Cells. [Related pubchem assays: 1829 (Project Summary), 1814 (Primary HTS)]; format: functional
[14] = Luminescence Cell-Based Dose Response HTS to Identify Activators of Luciferase Translation or Activity in H4 […] Cells. [Related pubchem assays: 1829 (Project Summary), 1814 (Primary HTS)]; format: functional
H4 = assay: Luminescence Cell-Based Dose Response HTS to Identify Activators of 5'UTR Stem-Loop Driven Prion Protein mRNA Translation in H4 Neuroglioblastoma Cells. [Related pubchem assays: 1829 (Project Summary), 1814 (Primary HTS)]; format: functional; conditions: Homo sapiens
[15] = target: Induced myeloid leukemia cell differentiation protein Mcl-1 (Homo sapiens, UniProt Q07820); format: functional
Sequence of Induced myeloid leukemia cell differentiation protein Mcl-1 (Q07820 whole entry, the tested form may be a part): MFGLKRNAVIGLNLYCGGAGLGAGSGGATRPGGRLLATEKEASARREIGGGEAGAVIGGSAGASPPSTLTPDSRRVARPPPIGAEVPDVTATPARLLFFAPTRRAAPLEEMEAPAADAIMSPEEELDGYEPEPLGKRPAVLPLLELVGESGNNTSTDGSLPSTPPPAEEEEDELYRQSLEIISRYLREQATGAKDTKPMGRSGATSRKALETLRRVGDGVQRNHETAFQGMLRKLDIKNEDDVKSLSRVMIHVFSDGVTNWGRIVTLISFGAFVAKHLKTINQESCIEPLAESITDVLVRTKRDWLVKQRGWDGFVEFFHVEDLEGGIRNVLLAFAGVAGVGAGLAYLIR

[16] = inhibitors of clade B AD8 Env fusion, dose response, cell-based, cherry-pick (AID 652062); format: functional;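 note: luciferase signal from cell-cell fusion driven by HIV-1 clade B AD8 Env; potency is for inhibitors of fusion seen as a drop in luminescence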
Fatty acid synthase [17] = target: T2, Fatty acid synthase (Homo sapiens, UniProt P49327); assay: FAS thioesterase domain inhibitors, dose response, biochemical, endpoint fluorescence intensity, uHTS hits (AID 624327); format: functional;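 note: fluorescence from hydrolysis of an O-methyl fluorescein acyl ester substrate by the enzyme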
T2 sequence (P49327 whole entry, the tested form may be a part): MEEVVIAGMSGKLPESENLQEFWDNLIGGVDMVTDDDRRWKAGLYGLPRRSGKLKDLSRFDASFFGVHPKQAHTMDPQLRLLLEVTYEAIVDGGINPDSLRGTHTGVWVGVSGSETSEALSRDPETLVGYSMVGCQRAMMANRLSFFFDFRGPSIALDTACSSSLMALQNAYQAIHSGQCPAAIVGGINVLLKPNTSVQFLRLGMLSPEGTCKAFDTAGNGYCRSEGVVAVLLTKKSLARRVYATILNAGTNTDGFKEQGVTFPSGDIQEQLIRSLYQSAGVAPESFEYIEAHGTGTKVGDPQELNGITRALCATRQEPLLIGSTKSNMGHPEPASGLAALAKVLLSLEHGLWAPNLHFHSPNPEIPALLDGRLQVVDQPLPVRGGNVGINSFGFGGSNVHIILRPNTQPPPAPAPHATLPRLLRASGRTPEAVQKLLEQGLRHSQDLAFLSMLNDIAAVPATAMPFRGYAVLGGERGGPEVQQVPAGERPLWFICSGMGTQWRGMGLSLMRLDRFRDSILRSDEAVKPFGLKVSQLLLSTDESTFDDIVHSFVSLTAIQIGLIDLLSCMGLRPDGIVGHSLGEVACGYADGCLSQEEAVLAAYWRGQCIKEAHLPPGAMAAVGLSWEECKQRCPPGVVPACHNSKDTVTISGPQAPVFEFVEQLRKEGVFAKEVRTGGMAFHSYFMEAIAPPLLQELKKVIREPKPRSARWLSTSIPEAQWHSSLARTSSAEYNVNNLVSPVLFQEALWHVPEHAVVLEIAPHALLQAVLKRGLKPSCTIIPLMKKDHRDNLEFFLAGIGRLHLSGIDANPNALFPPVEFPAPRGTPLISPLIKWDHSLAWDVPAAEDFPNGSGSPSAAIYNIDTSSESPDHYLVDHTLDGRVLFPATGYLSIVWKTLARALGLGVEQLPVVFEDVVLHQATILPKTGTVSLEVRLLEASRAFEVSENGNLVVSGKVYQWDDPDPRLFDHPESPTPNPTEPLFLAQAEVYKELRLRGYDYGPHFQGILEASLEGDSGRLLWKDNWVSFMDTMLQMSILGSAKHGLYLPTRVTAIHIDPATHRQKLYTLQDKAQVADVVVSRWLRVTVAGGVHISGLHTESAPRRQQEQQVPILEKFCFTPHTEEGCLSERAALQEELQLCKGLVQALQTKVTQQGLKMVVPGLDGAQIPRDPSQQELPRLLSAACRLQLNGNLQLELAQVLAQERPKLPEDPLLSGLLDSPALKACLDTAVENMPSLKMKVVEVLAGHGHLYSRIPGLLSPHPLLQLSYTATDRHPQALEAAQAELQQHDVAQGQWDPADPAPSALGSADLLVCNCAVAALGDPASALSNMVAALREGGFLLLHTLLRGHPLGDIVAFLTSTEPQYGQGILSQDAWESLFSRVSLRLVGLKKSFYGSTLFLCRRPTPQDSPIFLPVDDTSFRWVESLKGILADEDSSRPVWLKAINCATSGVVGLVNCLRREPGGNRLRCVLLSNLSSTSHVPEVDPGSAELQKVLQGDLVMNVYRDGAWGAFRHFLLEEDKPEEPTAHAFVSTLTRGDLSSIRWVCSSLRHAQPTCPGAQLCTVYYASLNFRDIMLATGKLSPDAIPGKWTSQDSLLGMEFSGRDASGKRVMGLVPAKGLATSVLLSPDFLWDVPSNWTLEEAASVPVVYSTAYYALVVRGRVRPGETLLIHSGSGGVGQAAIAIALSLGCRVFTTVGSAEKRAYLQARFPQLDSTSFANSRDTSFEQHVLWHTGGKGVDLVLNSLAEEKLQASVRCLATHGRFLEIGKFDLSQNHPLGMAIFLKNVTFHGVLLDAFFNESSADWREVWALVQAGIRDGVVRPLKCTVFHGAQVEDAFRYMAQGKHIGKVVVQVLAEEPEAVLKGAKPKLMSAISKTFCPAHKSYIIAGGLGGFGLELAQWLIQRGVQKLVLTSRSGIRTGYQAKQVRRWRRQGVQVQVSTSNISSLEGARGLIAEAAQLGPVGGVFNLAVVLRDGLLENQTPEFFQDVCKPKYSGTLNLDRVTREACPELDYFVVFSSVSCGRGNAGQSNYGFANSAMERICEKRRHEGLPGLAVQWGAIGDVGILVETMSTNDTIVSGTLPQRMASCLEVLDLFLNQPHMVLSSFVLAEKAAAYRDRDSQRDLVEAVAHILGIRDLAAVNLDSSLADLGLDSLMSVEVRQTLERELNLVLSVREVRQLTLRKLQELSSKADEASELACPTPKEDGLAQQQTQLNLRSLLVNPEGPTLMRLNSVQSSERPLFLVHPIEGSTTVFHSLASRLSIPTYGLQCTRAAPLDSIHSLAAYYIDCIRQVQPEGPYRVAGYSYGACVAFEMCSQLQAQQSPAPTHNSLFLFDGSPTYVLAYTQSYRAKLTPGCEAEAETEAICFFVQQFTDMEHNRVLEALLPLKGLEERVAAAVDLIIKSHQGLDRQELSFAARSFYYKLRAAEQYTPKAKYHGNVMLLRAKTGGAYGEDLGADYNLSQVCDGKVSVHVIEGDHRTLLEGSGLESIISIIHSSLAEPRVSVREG

Fatty acid synthase [18] = target: T2, Fatty acid synthase; assay: FAS thioesterase domain inhibitors, dose response, biochemical, kinetic fluorescence intensity (AID 624326); format: functional;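 note: rate of fluorescence rise from hydrolysis of a fluorogenic O-methyl fluorescein ester substrate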
[19] = NIH-3T3 fibroblast cytotoxicity, dose response, cytotoxicity control, cell-based, fluorescence, Alamar Blue, secondary assay (AID 2327); format: functional;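 note: NIH-3T3 mouse fibroblasts cultured with fluconazole at 8 µg/mL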
[20] = C. albicans growth with fluconazole, confirmation, fluorescence, retest (AID 2467); format: functional, cell-based
[21] = inhibitors of intracellular T. cruzi replication, confirmation, NIH3T3 host cells, beta-gal luminescence (AID 2044); format: functional, cell-based;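 note: intracellular parasites grown in NIH/3T3 mouse fibroblasts as host cells; luminescent beta-galactosidase reporter signal from transgenic T. cruzi replicating inside host cells; inhibitors lower the luminescence signal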
[22] = cytotoxicity toward NIH3T3 fibroblasts, dose response, counter-screen, cell-based, ATP luminescence, mouse fibroblasts (AID 2010); format: functional;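 note: cells exposed to compound for about 90 hours before reading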
[23] = Luminescence Cell-Based Dose Retest to Confirm Inhibitors of Cancer Stem Cells. [Related pubchem assays (depositor defined):AID2717, AID2721]; format: functional; conditions: Homo sapiens
[24] = target: T3, RNA-binding protein pos-1 (Caenorhabditis elegans, UniProt G5EF15); assay: inhibitors of POS-1/mex-3 RNA binding, dose response, biochemical, fluorescence polarization (AID 1964);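 note: purified POS-1 fused to maltose binding protein made in E. coli; potency of compounds blocking POS-1 binding to fluorescent RNA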
T3 sequence (G5EF15 whole entry): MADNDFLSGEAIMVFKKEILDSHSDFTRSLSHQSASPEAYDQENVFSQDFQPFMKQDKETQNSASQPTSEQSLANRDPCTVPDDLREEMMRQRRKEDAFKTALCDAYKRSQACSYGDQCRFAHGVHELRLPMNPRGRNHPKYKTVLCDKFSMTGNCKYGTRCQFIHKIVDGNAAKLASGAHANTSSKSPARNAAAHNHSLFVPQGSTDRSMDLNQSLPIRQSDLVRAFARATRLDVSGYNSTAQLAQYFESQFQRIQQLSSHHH

[25] = target: T4, Zinc finger protein mex-5 (Caenorhabditis elegans, UniProt Q9XUB2); assay: MEX-5/TCR-2 RNA interaction inhibitors, dose response, biochemical, C. elegans, fluorescence polarization (AID 1960)
T4 sequence (Q9XUB2 whole entry): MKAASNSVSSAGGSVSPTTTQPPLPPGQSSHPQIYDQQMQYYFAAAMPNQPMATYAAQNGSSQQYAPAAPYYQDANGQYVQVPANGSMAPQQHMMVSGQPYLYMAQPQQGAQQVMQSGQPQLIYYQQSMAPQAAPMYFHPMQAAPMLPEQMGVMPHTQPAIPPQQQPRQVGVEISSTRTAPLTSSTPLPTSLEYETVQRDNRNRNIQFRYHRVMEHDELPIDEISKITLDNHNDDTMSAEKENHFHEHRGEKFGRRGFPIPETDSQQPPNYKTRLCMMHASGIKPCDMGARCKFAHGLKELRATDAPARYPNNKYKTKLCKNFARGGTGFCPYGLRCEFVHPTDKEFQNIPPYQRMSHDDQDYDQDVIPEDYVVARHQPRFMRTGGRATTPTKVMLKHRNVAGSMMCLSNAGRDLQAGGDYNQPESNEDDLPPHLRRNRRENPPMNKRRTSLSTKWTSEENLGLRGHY

INS1 = assay: beta cell apoptosis inhibitors, cytokine rescue, dose response, luminescence, retest (AID 449756); format: functional, cell-based; conditions: Rattus norvegicus;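 note: cell death triggered by IL-1 beta plus TNF-alpha plus IFN-gamma mixture; protective hits raise ATP signal compared with cytokine alone wells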

CCOP(=O)(C#CC(C)(C)C)C1(O)CCCCC1 (stereo not given)
EC50 (cells [1]): > 350 µM (not active) | EC50 (cells [2]): > 350 µM (not active)

O=C(C1CCCCC1)N1CCCC(c2nc(O)c3nnn(Cc4ccccc4)c3n2)C1 (stereo not given)
AC50 [3]: 11.1 µM (active) | AC50 [4]: 18.5 µM (active) | AC50 [5]: > 70 µM (inactive)

CCOC(=O)c1cc(-c2ccc(OC)cc2F)nc2c1c(C)nn2CCC#N
EC50 [6]: 17.7 µM (active) | EC50 [7]: 20.2 µM (active) | EC50 [8]: 23.3 µM (active) | IC50 [9]: > 20 µM (inactive)

CCN(CC)S(=O)(=O)c1ccc(-c2ccc(S(=O)(=O)N(CC)CC)cc2)cc1
AC50 [10]: 3.81 µM (active) | AC50 [11]: 6.43 µM (active) | AC50 [12]: 3.13 µM (active)

CC(C)(C)C1=CC=C(C(C)(C)C)C(=O)C1=O
EC50 [13]: > 120 µM (not active) | EC50 [14]: > 120 µM (not active) | EC50 (H4): > 120 µM (not active) | IC50 [15]: 3.86 µM (active)

COC(=O)[C@@]12CCCN1[C@H](c1ccc(-c3ccc(F)cc3)c(OC)c1)[C@H]1C(=O)N(C)C(=O)[C@H]12
AC50 [3]: 2.93 µM (active) | AC50 [4]: 1.38 µM (active) | AC50 [16]: 25.5 µM (active)

Cc1ccc(C(=O)NCCSC(C)(C)C)cc1[N+](=O)[O-]
IC50 (Fatty acid synthase [17]): 11.7 µM (active) | IC50 (Fatty acid synthase [18]): 8.25 µM (active)

CCc1cccc(NC(=O)C2CCN(S(=O)(=O)c3ccc4c(c3)CC(C)N4C(C)=O)CC2)c1 (stereo not given)
AC50 [3]: 30.3 µM (active) | AC50 [4]: 6.68 µM (active) | AC50 [5]: 48.5 µM (active) | AC50 [16]: 10.6 µM (active)

O=C1[C@H]2[C@@H](c3ccc(F)cc3)N3C(=O)N(c4ccccc4)C(=O)[C@@]3(Cc3ccccc3)[C@H]2C(=O)N1C1CCCCC1
AC50 [10]: > 70 µM (inactive) | AC50 [11]: 64.9 µM (active) | AC50 [12]: 31.3 µM (active) | IC50 (Fatty acid synthase [17]): 17.5 µM (active) | IC50 (Fatty acid synthase [18]): 11 µM (active)

CC[C@H](C)Cc1cn([C@@H](CCCN=C(NC(=O)OC(C)(C)C)NC(=O)OC(C)(C)C)C(=O)NCCCCCCCCCCC(=O)N2CCN(C(=O)OC(C)(C)C)CC2)nn1
EC50 [19]: 83.3 µM (inconclusive) | EC50 [20]: > 38 µM (not active) | EC50 [21]: 1.04 µM (active) | EC50 [22]: > 30 µM (not active) | IC50 [9]: > 20 µM (inactive)

CC[C@@]12C(=O)N(c3ccc(OC)cc3)C(=O)N1[C@H](c1ccc(Cl)cc1)[C@@H]1C(=O)N(C3CCCCC3)C(=O)[C@@H]12
AC50 [3]: < 0.26 µM (active) | AC50 [4]: 0.379 µM (active) | AC50 [5]: 0.407 µM (active) | AC50 [16]: 0.607 µM (active)

CC(=O)N1c2ccc(S(=O)(=O)N3CCC(C(=O)Nc4cccc(F)c4)CC3)cc2CC1C (stereo not given)
AC50 [10]: 4.54 µM (active) | AC50 [11]: 48.7 µM (active) | AC50 [12]: 12 µM (active)

COc1cc(C(=O)NCCc2nc3ccccc3n2C)cc(OC)c1OC
EC50 (cells [1]): > 350 µM (not active) | EC50 (cells [2]): > 350 µM (not active)

CCn1c(SCC(=O)Nc2nncs2)nnc1-c1ccco1
EC50 (cells [1]): > 350 µM (not active) | EC50 (cells [2]): > 350 µM (not active)

COc1ccc(C(CC(=O)Nc2cc([N+](=O)[O-])ccc2OC)c2ccccc2)cc1 (stereo not given)
IC50 (Fatty acid synthase [17]): 12.9 µM (active) | IC50 (Fatty acid synthase [18]): 12.5 µM (active)

CC(=O)Nc1sc(-c2ccccc2)nc1-c1ccccc1
EC50 (cells [1]): > 350 µM (not active) | EC50 (cells [2]): > 350 µM (not active)

CNc1sc(C(=O)c2ccc(F)cc2)c(N)c1-c1nc2ccccc2s1
IC50 [15]: 2.45 µM (active)

Cc1cccc(NC(=O)CSc2nc3c(oc4ccccc43)c(=O)n2-c2ccccc2)c1
IC50 (Fatty acid synthase [17]): 25.6 µM (inactive) | IC50 (Fatty acid synthase [18]): 51.3 µM (inactive)

C/C=C\C=C/C(=O)Nc1cccc(C2=NOC3(C2)C[C@@H](C(N)=O)N(C(=O)c2ccccc2)C3)c1 (stereo not given in full)
IC50 [15]: 6.9 µM (not active)

Cc1ccc(-n2nc3c(c2NC(=O)c2ccco2)C[S+]([O-])C3)cc1 (stereo not given)
AC50 [5]: 7.72 µM (active)

O=C(/C=C/c1cccc([N+](=O)[O-])c1)NCCSCc1ccco1
IC50 (Fatty acid synthase [17]): 6.86 µM (active) | IC50 (Fatty acid synthase [18]): 10.1 µM (active)

Cc1ccc(S(=O)(=O)N(C)C)cc1NC(=O)COc1ccccc1C(=O)Nc1ccccc1
AC50 [3]: 1.78 µM (active) | AC50 [4]: 2.56 µM (active) | AC50 [5]: 3.87 µM (active) | AC50 [16]: 8.41 µM (active)

O=C(c1ccccc1)C(CN1CCCCC1)c1ccccc1 (stereo not given)
AC50 [10]: 2.41 µM (active) | AC50 [11]: 15.7 µM (active) | AC50 [12]: 5.56 µM (active)

CCN1C(=O)[C@H]2[C@@H](c3ccc(C)cc3)N3C(=O)N(c4cccc(Br)c4)C(=O)[C@@]3(CC(C)C)[C@H]2C1=O
AC50 [3]: 0.26 µM (active) | AC50 [4]: 0.374 µM (active) | AC50 [5]: 0.382 µM (active) | AC50 [16]: 0.672 µM (active)

CC(C)(C)C1CCC(CN2C(Nc3ccccc3)=NC[C@@H]2Cc2ccccc2)CC1 (stereo not given in full)
AC50 [23]: 6.47 µM (active) | IC50 [9]: > 20 µM (inactive)

COc1ccc(S(=O)(=O)Nc2ccc3c(c2)CC(=O)N([C@H](C)CO)C[C@H](C)[C@H](CN(C)S(=O)(=O)c2ccc(F)cc2)O3)cc1
AC50 [3]: 0.384 µM (active) | AC50 [16]: 10.6 µM (active)

O=C(CCSc1nc2ccccc2s1)N/N=C/c1c(O)ccc2ccccc12
EC50 [24]: 21.2 µM (active) | EC50 (cells [1]): 8.97 µM (active) | EC50 [25]: 14.6 µM (active) | EC50 (cells [2]): 31.3 µM (active) | AC50 [23]: 4.52 µM (active) | AC50 (INS1): 1.95 µM (active)

Cc1ccc(/C=N/NC(=O)CN2CCN(Cc3ccccc3Cl)CC2)o1
EC50 (cells [1]): > 350 µM (not active) | EC50 (cells [2]): > 350 µM (not active)
